According to US20110245334A1, “USE OF RACEMATES OF PINOCEMBRIN IN PREPARING MEDICAMENTS FOR TREATING STROKE” (CSPC Zhonggi Pharmaceutical Technology (Shijiazhuang) Co. …, priority 2008, published 2011):

How the values were obtained:
[1] = antihistamine, oral administration; cited from earlier work
tMCAO rats [2] = assay: Therapeutic time window in focal cerebral ischemia-reperfusion injured rats; format: in vivo, rat; conditions: tMCAO rats, 1 mg/kg, 5 mg/kg
Procedure: (§1) 1. In the test, transient middle cerebral artery occlusion (tMCAO) model of rats was adopted. The reperfusion was performed after focal cerebral ischemia for 2 hours so as to inspect therapeutic time window of pinocembrin after focal cerebral ischemia. The rats were administered by pinocembrin racemate (1 mg/kg, 5 mg/kg, intravenous injection) after reperfusion 1 hour, 4 hours and 6 hours (i.e., ischemia 3 hour, 6 hours and 8 hours). (R)-pinocembrin and (S)-pinocembrin (1 mg/kg, 5 mg/kg, intravenous injection) were administered after reperfusion 1 hour and 4 hours (i.e., ischemia 3 hour and 6 hours). The therapeutic time windows of these drugs in focal cerebral ischemia were assessed by studying their effects to neurological symptom scores, infarct sizes and brain water contents during 24 hours after tMCAO.
(§2) 2.4 Experimental Grouping and Administration • Sham operation group (intravenous injection of normal saline after 3 hours of ischemia); • Model group (intravenous injection of 50 mg/kg hydroxypropyl β-cyclodextrin after 3 hours of ischemia); • Nimodipine group (1 mg/kg, administered after 3 hours of ischemia); • Pinocembrin racemate group (1 mg/kg, 5 mg/kg, administered after 3, 6 and 8 hours of ischemia); • (R)-pinocembrin group (1 mg/kg, 5 mg/kg, administered after 3 and 6 hours of ischemia); • (S)-pinocembrin group (1 mg/kg, 5 mg/kg, administered after 3 and 6 hours of ischemia).
(§3) First administration was performed by intravenous injection, and intraperitoneal injection was carried out once 12 hours later with a dose 1.5 times of that for intravenous injection.

tMCAO rats [3] = assay: Brain water content, tMCAO time window study; format: in vivo, rat; conditions: 2 hours ischemia and 24 hours reperfusion
Procedure: as §1, §2, §3
The wet weight of each animal's brain was weighted before sliced. After staining, the brain slices were dried at 105° C. for 24 hours, and the dry weight of each animal's brain was weighted. The brain water contents of animals of various groups were compared. Brain water content=(brain wet weight−brain dry weight)/brain wet weight×100%.

SD rats = assay: Acute toxicity, single intravenous injection; conditions: single intravenous injection in SD rats
plasma ET-1 = assay: Plasma ET-1 (radioimmunoassay) in SHRSP; format: in vivo, rat; parameters: ET-1 content: unit not given here; conditions: SHRSP rats; for ET-1 content: plasma
Procedure: 5) Blood of 2 mL was dropped rapidly in a cuvette with 30 μL 7.5% EDTA-2Na and 40 μL aprotinin and mixed. After centrifuged for 5 min at 3000 rpm, plasma ET-1 in liquid supernatant was determined by isotope radioimmunoassay.

plasma fibrinogen = assay: Plasma fibrinogen assay (ELISA) in SHRSP; format: in vivo, rat; parameters: Plasma fibrinogen: unit not given here; conditions: SHRSP rats
Procedure: The mixture was centrifuged for 15 min at 3000 rpm and plasma fibrinogen in liquid supernatant was determined by euzymelinked immunosorbent assay (ELISA).

tMCAO rats [4] = assay: Neurobehavioral examination (Bederson's score), tMCAO time window study; format: in vivo, rat; conditions: 2 hours ischemia and 24 hours reperfusion
Procedure: as §1
The CCA and ICA were clipped with artery clips. Two No. 0 surgery lines were litigated on the ECA distal end with 2-3 mm spacing and then the vascular between the two surgery lines was cut. The distal end of ECA was pulled until it formed a straight line with the ICA. An incision was cut on ECA and a nylon line was inserted through ECA into ICA. After the artery clip was loosen, the nylon line was pushed on into the brain through ICA and inserted in depth of 18.5±0.5 mm when resistance was felt slightly. The nylon line reached a smaller anterior cerebral artery through the beginning of MCA and then the blood flow obstruction in right MCA was established. the animals were kept in anesthesia during the obstruction. After 2 hours of obstruction, the nylon line was gently pulled out to ECA stub to form reperfusion. During the surgery process, the animals were irradiated by table lamp of 100 W to maintain the body temperature. The room temperature was kept in range of 23-25° C.
as §2, §3
Neurobehavioral examination was performed respectively when the animals were awake after surgery and before the animals were put to death. Bederson's score was adopted (see details in Example 2, 1. Neurobehavioral Examination).

tMCAO rats [5] = assay: Infarct volume (TTC), tMCAO time window study; format: in vivo, rat; conditions: 2 hours ischemia and 24 hours reperfusion
Procedure: as §1, §2, §3
After neurobehavioral scoring, the rats were put to death by decollation and their brain tissues were taken out quickly and put into a refrigerator of −20° C. 10 min later, the brain tissues were moved to an environment of room temperature. After the olfactory bulb, cerebellar and lower brain stem were resected, the brain tissue was cut into six continuous coronal slices with an interval of 2 mm. Then the brain slices were quickly put into 5 ml solution containing 2% TTC and incubated at a constant temperature of 37° C. and in a condition of darkness for 30 min. During the time, the brain slices were tipped every 5 min. […] Every group of brain slices were put in order and photographed. The photographs were processed by an image analysis system and the infarct areas in each slice were calculated. The infarct volume of each slice was calculated via multiplying the infarct area by thickness of slice (2 mm), and the infarct volume was the sum of infarct volumes of all slices. The infarct volume percentage was expressed as: sick-side infarct volume/total sick-side brain volume.

in vivo = conditions: SD, rat, iv
MCAO rats = assay: Nissl staining of hippocampal neurons, MCAO; format: in vivo, rat; conditions: hippocampus, cerebral ischemia 24 hours
Procedure: After cerebral ischemia for 24 hours, the rats were anesthetized by intraperitoneal injection of 10% Chloral hydrate. After perfused via heart with heparinized normal saline for 10 min and 4% paraformaldehyde for 30 min, the brain tissue was taken out and moved in 4% paraformaldehyde to fix, then cut into coronal sections (6 μm) by a frozen section machine, and one section was taken out in every 20 sections to stain. The stained sections were expanded on a slide glass treated by polylysine, and then preserved in a refrigerator at −40° C.
Nissel staining: (1) the frozen section was taken out from the refrigerator and dried in room temperature; (2) put into acetone to fix for 30 min and washed by PBS for 3 times, 3 min every time; (3) dipped for 20-30 min in toluidine blue dye and then washed by water for 15 min; (4) dehydrated by ethanol in gradient manner and vitrified by xylene and mounted by a neutral gum; (5) observed under a light microscope and photographed for analysis; (6) 4 frozen sections in roughly same position for each rat were taken out and 5 vision fields in hippocampus for each section were observed under 200× light microscope (totally 20 visions per rat). The cells in vision fields were counted. The averages of ratios of the numbers in the administration groups to the number in the model group were calculated for statistical analysis.

[6] = initially injected after 3 hours of ischemia
[7] = initially injected after 6 hours of ischemia

| Compound | effect on neurobehavioral injury, infarct volume and cerebral edema (tMCAO rats [2]; [6]) | effect on neurobehavioral injury, infarct volume and cerebral edema (tMCAO rats [2]; [7]) | Brain water content (%) (tMCAO rats [3]; 1 mg/kg, 3 h) | Brain water content (%) (tMCAO rats [3]; 1 mg/kg, 6 h) | Brain water content (%) (tMCAO rats [3]; 5 mg/kg, 3 h) | Brain water content (%) (tMCAO rats [3]; 5 mg/kg, 6 h) | ET-1 content (plasma ET-1; 3 mg/kg) | ET-1 content (plasma ET-1; 10 mg/kg) | ET-1 content (plasma ET-1; 30 mg/kg) | Plasma fibrinogen (plasma fibrinogen; 3 mg/kg) | Plasma fibrinogen (plasma fibrinogen; 10 mg/kg) | Plasma fibrinogen (plasma fibrinogen; 30 mg/kg) | Neurobehavioral value (tMCAO rats [4]; 1 mg/kg, 3 h) | Neurobehavioral value (tMCAO rats [4]; 1 mg/kg, 6 h) | Neurobehavioral value (tMCAO rats [4]; 5 mg/kg, 3 h) | Neurobehavioral value (tMCAO rats [4]; 5 mg/kg, 6 h) | Infarct percentage (%) (tMCAO rats [5]; 1 mg/kg, 3 h) | Infarct percentage (%) (tMCAO rats [5]; 1 mg/kg, 6 h) | Infarct percentage (%) (tMCAO rats [5]; 5 mg/kg, 3 h) | Infarct percentage (%) (tMCAO rats [5]; 5 mg/kg, 6 h) | also measured |
| --- | --- | --- | --- | --- | --- | --- | --- | --- | --- | --- | --- | --- | --- | --- | --- | --- | --- | --- | --- | --- | --- |
| CC(CN1c2ccccc2Sc2cccnc21)N(C)C (racemic) [isothipendyl racemate, isothipendyl] |  |  |  |  |  |  |  |  |  |  |  |  |  |  |  |  |  |  |  |  | efficacy relative to (+)-isomer [1]: 2.5 times; efficacy relative to (−)-isomer [1]: 1.4 times |
| O=C1C[C@H](c2ccccc2)Oc2cc(O)cc(O)c21 [(R)-pinocembrin] | significant effects | not effective | 82.18 ± 0.98 | 83.36 ± 1.12 | 81.20 ± 1.03 | 83.77 ± 1.07 | 235.4 ± 35.2 | 228.4 ± 16.9 | 198.1 ± 35.4 | 2.99 ± 0.13 | 2.83 ± 0.18 | 2.74 ± 0.47 | 1.42 ± 0.82 | 1.86 ± 0.57 | 1.39 ± 0.72 | 1.83 ± 0.49 | 15.69 ± 7.82 | 26.33 ± 12.67 | 15.66 ± 7.88 | 25.89 ± 13.57 | LD50 (SD rats): 347.8 (257.4˜466.3) mg/kg |
| O=C1C[C@@H](c2ccccc2)Oc2cc(O)cc(O)c21 [(S)-pinocembrin, reference compound] | significant effects | not effective | 81.95 ± 1.00 | 82.96 ± 0.98 | 81.87 ± 1.12 | 83.37 ± 1.27 | 243 ± 19.5 | 240 ± 16.8 | 240.8 ± 24.3 | 3.00 ± 0.32 | 2.99 ± 0.61 | 2.81 ± 0.57 | 1.29 ± 0.72 | 1.79 ± 0.63 | 1.59 ± 0.77 | 1.77 ± 0.70 | 15.32 ± 7.98 | 28.06 ± 12.98 | 15.78 ± 7.28 | 25.97 ± 12.75 | LD50 (in vivo): 375 mg/kg; effect on plasma ET-1 content (plasma ET-1; compared with the model group): no activity; effect on content of plasma fibrinogen (plasma fibrinogen; compared with the model group): no activity |
| pinocembrin racemate |  |  |  |  |  |  |  |  |  |  |  |  |  |  |  |  |  |  |  |  | increase of nerve cells in comparison with the model group (MCAO rats; 3 mg/kg): 11.5±8.9%; increase of nerve cells in comparison with the model group (MCAO rats; 10 mg/kg): 36.8±4.9%; increase of nerve cells in comparison with the model group (MCAO rats; 30 mg/kg): 51.7±6.6% |
